Where two headings read alike, the source gives them in different places.
What was measured:
[1] = target: T1, GST-RIPK2 fusion protein (human RIPK2, amino acids 1-310) (Homo sapiens, UniProt O43353); assay: RIPK2 binding competition assay (TR-FRET, Tracer 199 displacement); details: 10 nM Tracer 199, 1 nM GST-RIPK2, read-out: RIPK2 IC50
T1 construct: made in house; host or cells: baculovirus infected Sf9 cells
Method in brief: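 IC50 derived from the TR-FRET emission ratio (665/620 nm, 337 nm excitation), normalized with no-inhibitor and no-enzyme controls. Incubation 45 min at 22 °C, pH 7.5 Tris buffer, with final 10 nM tracer, 1 nM Sf9-expressed GST-RIPK2 fragment (aa 1-310) and 0.5 nM Tb-labelled anti-GST.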

[2] = target: T2, binding of His-XIAP(BIR2)-avi fusion protein to GST-RIPK2 fusion protein (RIPK2/XIAP) (Homo sapiens, UniProt O43353); assay: RIPK2-XIAP binding competition PPI assay (TR-FRET); details: for Emax: read-out: PPI Amax bin; for IC50: read-out: PPI IC50 bin
T2 construct: made in house; host or cells: baculovirus infected Sf9 cells
T2 sequence (O43353 1-310 limits assumed): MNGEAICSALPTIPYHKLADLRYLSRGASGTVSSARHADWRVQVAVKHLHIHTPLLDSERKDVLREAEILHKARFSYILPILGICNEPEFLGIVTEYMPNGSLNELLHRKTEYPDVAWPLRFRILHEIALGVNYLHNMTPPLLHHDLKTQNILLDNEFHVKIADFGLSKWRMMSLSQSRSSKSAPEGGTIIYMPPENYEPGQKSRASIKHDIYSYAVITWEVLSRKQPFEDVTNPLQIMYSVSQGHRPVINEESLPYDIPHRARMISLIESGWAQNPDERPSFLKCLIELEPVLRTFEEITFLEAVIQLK
Method in brief: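 Compounds (in DMSO, 100-fold stock) incubated 120 min at 23 °C with 1 nM GST-RIPK2 (aa 1-310) and 25 nM His-XIAP(BIR2 aa 152-231)-avi, plus anti-His-XL665 and anti-GST-Tb, in pH 7.5 Tris buffer. Read-out: 665/520 nm emission ratio. Normalized to no-inhibitor (0%) and 50 nM GSK583 (−100%); Amax binned A–D.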

[3] = tested on: NF-κB pathway (SEAP) in THP1-Dual cells; assay: THP-1 Dual cell SEAP assay (L18-MDP stimulated); assay type: cell-based; details: Homo sapiens, THP1-Dual, read-out: NF-κB THP1 IC50 bin
Method in brief: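 IC50 values derive from non-linear regression of % inhibition, calculated against DMSO/L18-MDP-treated wells after media-only subtraction. NF-κB SEAP activity was read at OD 620-655 nm (QUANTI-Blue, 2 h, 37 °C) from supernatants of THP1-Dual cells. Cells had been compound-treated 30 min before overnight (20-24 h) stimulation with 10 ng/mL final L18-MDP.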

[4] = RIPK2/XIAP binding competition PPI assay, Amax
[5] = RIPK2/XIAP binding competition PPI assay

T1 sequence (O43353 1-310): as the sequence (O43353 1-310 limits assumed) above

Structure (SMILES)	IC50 [1] [nM]	Emax [2, 4] [%]	IC50 [2, 5] [nM]	IC50 [3] [nM]	Emax [2] [%]
COc1cc2ncc(-c3cc(F)c(OC)c4[nH]c(CO)nc34)n2cc1S(=O)(=O)C(C)(C)C [Example 119, (4-(6-(tert-butylsulfonyl)-7-methoxyimidazo[1,2-a]pyridin-3-yl)-6-fluoro-7-methoxy-1H-benzo[d]imidazol-2-yl)methanol]	< 1	55 to 80	< 1	< 50	
COc1cc2ncc(-c3ccc4c(c3)nc(N)n4C)n2cc1S(=O)(=O)C(C)(C)C [Example 115, 5-(6-(tert-butylsulfonyl)-7-methoxyimidazo[1,2-a]pyridin-3-yl)-1-methyl-1H-benzo[d]imidazol-2-amine]	> 20	55 to 80	> 20	> 1000	
COc1cc2ncc(-c3cc(F)c(OC)c(NS(=O)(=O)c4cn(C)nc4C)c3)n2cc1S(=O)(=O)C(C)(C)C [Example 279, N-(5-(6-(tert-butylsulfonyl)-7-methoxyimidazo[1,2-a]pyridin-3-yl)-3-fluoro-2-methoxyphenyl)-1,3-dimethyl-1H-pyrazole-4-sulfonamide]	< 1	> 80	< 1	< 50	
Nc1cc(-c2cnc3ccc(C(F)(F)F)cn23)cc(F)n1 [Example 4, 6-fluoro-4-(6-(trifluoromethyl)imidazo[1,2-a]pyridin-3-yl)pyridin-2-amine]	> 20	< 30	> 20	250 to 1000	
CC(C)(C)S(=O)(=O)c1cn2c(-c3cnc4nccn4c3)cnc2cc1OCCO [Example 235, 2-((6-(tert-butylsulfonyl)-3-(imidazo[1,2-a]pyrimidin-6-yl)imidazo[1,2-a]pyridin-7-yl)oxy)ethan-1-ol]	> 20	< 30	> 20	> 1000	
COc1cc2ncc(-c3cc(F)c(OC)c(NS(=O)(=O)CC(F)(F)F)c3)n2cc1S(=O)(=O)C(C)(C)C [Example 143, N-(5-(6-(tert-butylsulfonyl)-7-methoxyimidazo[1,2-a]pyridin-3-yl)-3-fluoro-2-methoxyphenyl)-2,2,2-trifluoroethane-1-sulfonamide]	1 to 2.5	55 to 80	1 to 2.5	250 to 1000	
C[C@H](CO)COc1cc2ncc(-c3cc(F)c(N)nc3F)n2cc1S(=O)(=O)C(C)(C)C [Example 176, (R)-3-((3-(6-amino-2,5-difluoropyridin-3-yl)-6-(tert-butylsulfonyl)imidazo[1,2-a]pyridin-7-yl)oxy)-2-methylpropan-1-ol]	1 to 2.5	> 80	1 to 2.5	50 to 250	
CC(C)(C)S(=O)(=O)c1cc2c(-c3cc(Cl)c(N)nc3F)cnn2cc1OCCOP(=O)(O)O [Example 187, 2-((3-(6-amino-5-chloro-2-fluoropyridin-3-yl)-5-(tert-butylsulfonyl)pyrazolo[1,5-a]pyridin-6-yl)oxy)ethyl dihydrogen phosphate]	2.5 to 20	> 80	2.5 to 20	250 to 1000	
CCS(=O)(=O)Nc1cc(-c2cnc3cc(OC)c(C(=O)N4CCOCC4)cn23)cc(F)c1OC [Example 190, N-(3-fluoro-2-methoxy-5-(7-methoxy-6-(morpholine-4-carbonyl)imidazo[1,2-a]pyridin-3-yl)phenyl) ethanesulfonamide]	> 20	55 to 80	> 20	> 1000	
COc1cc2ncc(-c3cc(F)c(N)nc3F)n2cc1S(=O)(=O)N(C)C [Example 161, 3-(6-amino-2,5-difluoropyridin-3-yl)-7-methoxy-N,N-dimethylimidazo[1,2-a]pyridine-6-sulfonamide]	> 20		> 20	> 1000	> 80
COc1cn2ncc(-c3cc(F)c(N)nc3F)c2cc1C1(O)CCN(C)CC1 [Example 73, 4-(3-(6-amino-2,5-difluoropyridin-3-yl)-6-methoxypyrazolo[1,5-a]pyridin-5-yl)-1-methylpiperidin-4-ol]	2.5 to 20	> 80	2.5 to 20	250 to 1000	
COc1cc2ncc(-c3cnc4c(c3)OCCN4)n2cc1S(=O)(=O)C(C)(C)C [Example 84, 7-(6-(tert-butylsulfonyl)-7-methoxyimidazo[1,2-a]pyridin-3-yl)-3,4-dihydro-2H-pyrido[3,2-b][1,4]oxazine]	> 20	55 to 80	> 20	> 1000	
COc1cc2ncc(-c3ccc4nc(N)oc4c3)n2cc1S(=O)(=O)C(C)(C)C [Example 96, 6-(6-(tert-butylsulfonyl)-7-methoxyimidazo[1,2-a]pyridin-3-yl)benzo[d]oxazol-2-amine]	2.5 to 20	< 30	> 20	250 to 1000	
COc1cc2ncc(-c3ccc4c(N)n[nH]c4c3)n2cc1S(=O)(=O)C(C)(C)C [Example 103, 6-(6-(tert-butylsulfonyl)-7-methoxyimidazo[1,2-a]pyridin-3-yl)-1H-indazol-3-amine]	> 20	< 30	> 20	> 1000	
CC(C)(C)S(=O)(=O)c1cn2c(-c3cnc4[nH]c(Cl)cc4c3)cnc2cc1OCCO [Example 233, 2-((6-(tert-butylsulfonyl)-3-(2-chloro-1H-pyrrolo[2,3-b]pyridin-5-yl)imidazo[1,2-a]pyridin-7-yl)oxy)ethan-1-ol]	2.5 to 20	< 30	> 20	> 1000	
C[C@H](O)COc1cn2ncc(-c3cc(Cl)c(N)nc3F)c2cc1S(=O)(=O)C(C)(C)C [Example 46, (S)-1-((3-(6-amino-5-chloro-2-fluoropyridin-3-yl)-5-(tert-butylsulfonyl)pyrazolo[1,5-a]pyridin-6-yl)oxy)propan-2-ol]	1 to 2.5	> 80	1 to 2.5	50 to 250	
CC(N)COc1cc2ncc(-c3cc(Cl)c(N)nc3F)n2cc1S(=O)(=O)C(C)(C)C (centres unmarked) [Example 239, 5-(7-(2-aminopropoxy)-6-(tert-butylsulfonyl)imidazo [1,2-a]pyridin-3-yl)-3-chloro-6-fluoropyridin-2-amine]	2.5 to 20	> 80	2.5 to 20	250 to 1000	
COc1c(F)cc(-c2cnc3cc(OCCO)c(S(=O)(=O)C(C)(C)C)cn23)cc1NS(=O)(=O)c1cnn(C)c1 [Example 225, N-(5-(6-(tert-butylsulfonyl)-7-(2-hydroxyethoxy)imidazo[1,2-a]pyridin-3-yl)-3-fluoro-2-methoxyphenyl)-1-methyl-1H-pyrazole-4-sulfonamide]	< 1	> 80	< 1	< 50	
COc1cc2ncc(-c3ccc4cncn4c3)n2cc1S(=O)(=O)C(C)(C)C [Example 113, 6-(tert-butylsulfonyl)-3-(imidazo[1,5-a]pyridin-6-yl)-7-methoxyimidazo[1,2-a]pyridine]	> 20	< 30	> 20	> 1000	
COc1cc2ncc(-c3cc(F)c(OC)c(NS(=O)(=O)c4ccn(C)n4)c3)n2cc1S(=O)(=O)C(C)(C)C [Example 134, N-(5-(6-(tert-butylsulfonyl)-7-methoxyimidazo[1,2-a]pyridin-3-yl)-3-fluoro-2-methoxyphenyl)-1-methyl-1H-pyrazole-3-sulfonamide]	1 to 2.5	> 80	< 1	< 50	

— US20260137706A1, “METHODS OF TREATING INFLAMMATORY DISEASES” (INTERLINE THERAPEUTICS, INC., priority 2023, published 2026)
